Here are results for 22 molecules from patent publication US20250129104A1, “7H-PYRROLO[2,3-D]PYRIMIDINES AND PREPARATION AND USES THEREOF” (BioSplice Therapeutics, Inc., priority 2021, published 2025).

The EC50 is the concentration giving half of the maximal effect.

Test [1] addresses recombinant DYRK1A kinase (Homo sapiens (Human), UniProt Q13627). Put plainly: DYRK1A kinase assay (Ser/Thr 18 peptide Z-lyte FRET assay). It counts as biochemical. The settings on record: DYRK1A kinase activity; 15 μM ATP, 1 h room temperature; method text calls the value IC50. The essentials: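 Recombinant human DYRK1A (0.25 μg/mL) with 15 μM ATP and 4 μM Ser/Thr 18 peptide, 1 h at room temperature with compound (11-point, 1:3, 10 μM top, duplicate). Z-lyte development 1 h, then coumarin/fluorescein FRET emission ratio converted to % phosphorylation; IC50 by non-linear regression.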

The subject of test [2] is Tau phosphorylation at Thr212 (pThr212). Nature of the test: tau phosphorylation assay: phosphoTau (Thr212) AlphaLISA in HEK293T cells transfected with DYRK1A and MAPT. It is filed as cell-based. The settings on record: HEK-293T; HEK293T cells transfected with human DYRK1A and MAPT; 18-24 h compound treatment; read-out: pTau (Thr212) EC50. The essentials: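 HEK293T cells transiently co-transfected with human untagged DYRK1A and MAPT (441 aa Tau), reseeded, then treated 18-24 h at 37 °C with compounds (10-point 1:3 series, 20 μM to 1.1 nM final, duplicates). Lysates probed by AlphaLISA with HT7 donor and pThr212 acceptor antibodies; EC50 from curve fit of signal.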
(In general: Alpha assays give light when donor and acceptor beads are brought close together.)

Consider `C[C@@H](Nc1ncc2c(-c3ccc4nnn(C)c4c3)c[nH]c2n1)C1CC1` [Compound 831, (R)—N-(1-Cyclopropylethyl)-5-(1-methyl-1H-benzo[d][1,2,3]triazol-6-yl)-7H-pyrrolo[2,3-d]pyrimidin-2-amine], for which the 50% effective concentration (EC50) in test [1] came out at 7.3 nM; in test [2] it was 165 nM.

With `CO[C@H]1CC[C@@H](Nc2ncc3c(-c4ccc5nnn(C)c5c4)c[nH]c3n2)CC1` [Compound 838, N-(cis-4-Methoxycyclohexyl)-5-(1-methyl-1H-benzo[d][1,2,3]triazol-6-yl)-7H-pyrrolo[2,3-d]pyrimidin-2-amine], the EC50 in test [1] is 9.8 nM; in test [2], 25 nM.

As for `CC(C)(F)CNc1ncc2c(-c3ccc4nccn4n3)c[nH]c2n1` [Compound 909, N-(2-Fluoro-2-methylpropyl)-5-(imidazo[1,2-b]pyridazin-6-yl)-7H-pyrrolo [2,3-d]pyrimidin-2-amine], the concentration for a half-maximal effect (EC50) in test [1] was determined as 3.4 nM; in test [2] it was 40 nM.

For the molecule `CC(F)(F)CNc1ncc2c(-c3ccc4nccn4n3)c[nH]c2n1` [Compound 910, N-(2,2-Difluoropropyl)-5-(imidazo[1,2-b]pyridazin-6-yl)-7H-pyrrolo[2,3-d]pyrimidin-2-amine], the results for the concentration giving a half-maximal response (EC50) in test [1] and in test [2] were 18.6 nM and 283 nM, respectively.

In the case of `C[C@@H](Nc1ncc2c(-c3ccc4nccn4n3)c[nH]c2n1)C(F)(F)F` [Compound 912, (R)-5-(Imidazo[1,2-b]pyridazin-6-yl)-N-(1,1,1-trifluoropropan-2-yl)-7H-pyrrolo[2,3-d]pyrimidin-2-amine], the half-maximal effective concentration (EC50) in test [1] is 5.5 nM; in test [2], 96 nM.

As for `C[C@H](Nc1ncc2c(-c3ccc4nccn4n3)c[nH]c2n1)C(F)(F)F` [Compound 913, (S)-5-(Imidazo[1,2-b]pyridazin-6-yl)-N-(1,1,1-trifluoropropan-2-yl)-7H-pyrrolo[2,3-d]pyrimidin-2-amine], the EC50 in test [1] turned out to be 6.4 nM; in test [2] it was 228 nM.

In the case of `CC1(CNc2ncc3c(-c4ccc5nccn5n4)c[nH]c3n2)CC1` [Compound 919, 5-(Imidazo[1,2-b]pyridazin-6-yl)-N-((1-methylcyclopropyl)methyl)-7H-pyrrolo[2,3-d]pyrimidin-2-amine], the EC50 in test [1] is 4 nM; in test [2] it was 30 nM.

Consider `FC(F)(F)C1(CNc2ncc3c(-c4ccc5nccn5n4)c[nH]c3n2)CC1` [Compound 920, 5-(Imidazo[1,2-b]pyridazin-6-yl)-N-((1-(trifluoromethyl)cyclopropyl)methyl)-7H-pyrrolo[2,3-d]pyrimidin-2-amine], for which the values for the concentration giving a half-maximal response (EC50) in test [1] and in test [2] were 6.1 nM and 70 nM, respectively.

Regarding `FC1(CNc2ncc3c(-c4ccc5nccn5n4)c[nH]c3n2)CCC1` [Compound 923, N-((1-Fluorocyclobutyl)methyl)-5-(imidazo[1,2-b]pyridazin-6-yl)-7H-pyrrolo[2,3-d]pyrimidin-2-amine], the half-maximal effective concentration (EC50) in test [1] was determined as 2.5 nM; in test [2], 20 nM.

On to `FC1(F)CCC(Nc2ncc3c(-c4ccc5nccn5n4)c[nH]c3n2)CC1` [Compound 924, N-(4,4-Difluorocyclohexyl)-5-(imidazo[1,2-b]pyridazin-6-yl)-7H-pyrrolo [2,3-d]pyrimidin-2-amine], for which the results for the EC50 in test [1] and in test [2] were 3.2 nM and 20 nM, respectively.

Consider `CO[C@H]1CC[C@@H](Nc2ncc3c(-c4ccc5nccn5n4)c[nH]c3n2)CC1` [Compound 925, 5-(Imidazo[1,2-b]pyridazin-6-yl)-N-(cis-4-methoxycyclohexyl)-7H-pyrrolo[2,3-d]pyrimidin-2-amine], for which the half-maximal effective concentration (EC50) in test [1] was 3.2 nM; in test [2] it was 25 nM.

As for `Cc1cnc2ccc(-c3c[nH]c4nc(NCC(C)(C)F)ncc34)nn12` [Compound 1038, N-(2-Fluoro-2-methylpropyl)-5-(3-methylimidazo[1,2-b]pyridazin-6-yl)-7H-pyrrolo[2,3-d]pyrimidin-2-amine], the figures for the EC50 in test [1] and in test [2] were 4.2 nM and 33 nM, respectively.

Consider `COc1nc(CC(C)C)nc2[nH]cc(-c3ccn4nccc4c3)c12` [Compound 1113, 2-Isobutyl-4-methoxy-5-(pyrazolo[1,5-a]pyridin-5-yl)-7H-pyrrolo[2,3-d]pyrimidine], for which the concentration giving a half-maximal response (EC50) in test [1] is 9.2 nM; in test [2] it was 572 nM.

Take `c1cc2cc(-c3c[nH]c4nc(C5CC5)ncc34)ccn2n1` [Compound 1115, 2-Cyclopropyl-5-(pyrazolo[1,5-a]pyridin-5-yl)-7H-pyrrolo[2,3-d]pyrimidine]: the concentration for a half-maximal effect (EC50) in test [1] was found to be 24.9 nM; in test [2], 386 nM.

As to `CO[C@H]1C[C@@H](Nc2ncc3c(-c4ccn5nccc5c4)c[nH]c3n2)C1` [Compound 1140, N-(cis-3-Methoxycyclobutyl)-5-(pyrazolo[1,5-a]pyridin-5-yl)-7H-pyrrolo [2,3-d]pyrimidin-2-amine], the 50% effective concentration (EC50) came to 2.6 nM in test [1] and 6 nM in test [2].

Take `c1cc2cc(-c3c[nH]c4nc(NC5CC6(COC6)C5)ncc34)ccn2n1` [Compound 1141, 5-(Pyrazolo[1,5-a]pyridin-5-yl)-N-(2-oxaspiro[3.3]heptan-6-yl)-7H-pyrrolo [2,3-d]pyrimidin-2-amine]: the results for the EC50 in test [1] and in test [2] were 385 nM and 7 nM, respectively.

On to `FC1(F)CCC(Nc2ncc3c(-c4ccn5nccc5c4)c[nH]c3n2)CC1` [Compound 1142, N-(4,4-Difluorocyclohexyl)-5-(pyrazolo[1,5-a]pyridin-5-yl)-7H-pyrrolo[2,3-d]pyrimidin-2-amine], for which the EC50 amounted to 5.7 nM in test [1] and 32 nM in test [2].

For `CO[C@H]1CC[C@@H](Nc2ncc3c(-c4ccn5nccc5c4)c[nH]c3n2)CC1` [Compound 1143, N-(cis-4-Methoxycyclohexyl)-5-(pyrazolo[1,5-a]pyridin-5-yl)-7H-pyrrolo [2,3-d]pyrimidin-2-amine], the EC50 in test [1] amounted to 3.7 nM; in test [2], 4 nM.

For the molecule `c1cc2cc(-c3c[nH]c4nc(NC5CCOCC5)ncc34)ccn2n1` [Compound 1148, 5-(Pyrazolo[1,5-a]pyridin-5-yl)-N-(tetrahydro-2H-pyran-4-yl)-7H-pyrrolo [2,3-d]pyrimidin-2-amine], the concentration giving a half-maximal response (EC50) was 4.2 nM in test [1] and 11 nM in test [2].

Turning to `CC(C)(F)CNc1ncc2c(-c3ccn4ncc(C(=O)N5CCCCC5)c4c3)c[nH]c2n1` [Compound 1214, (5-(2-((2-Fluoro-2-methylpropyl)amino)-7H-pyrrolo[2,3-d]pyrimidin-5-yl)pyrazolo[1,5-a]pyridin-3-yl)(piperidin-1-yl)methanone], the concentration giving a half-maximal response (EC50) was 9.7 nM in test [1] and 219 nM in test [2].

On to `CN1CCC(Nc2ncc3c(-c4ccn5ncc(C(=O)N6CCCCC6)c5c4)c[nH]c3n2)CC1` [Compound 1233, (5-(2-((1-Methylpiperidin-4-yl)amino)-7H-pyrrolo[2,3-d]pyrimidin-5-yl)pyrazolo[1,5-a]pyridin-3-yl)(piperidin-1-yl)methanone], for which the EC50 in test [1] worked out at 18.1 nM; in test [2] it was 116 nM.

Consider `O=C(NCC(F)F)c1cnn2ccc(-c3c[nH]c4nc(C5CC5)ncc34)cc12` [Compound 1249, 5-(2-Cyclopropyl-7H-pyrrolo[2,3-d]pyrimidin-5-yl)-N-(2,2-difluoroethyl) pyrazolo[1,5-a]pyridine-3-carboxamide], for which the EC50 was determined as 1.6 nM in test [1] and 27 nM in test [2].
